Literature values as cited in patent US20250255927A1, “COMPOSITIONS AND METHODS FOR ALLEVIATING ADVERSE EFFECTS FROM RESPONSIBLE ALCOHOL CONSUMPTION” (Cheers Health, Inc., priority 2023, published 2025).

How the values were obtained:
[1] = rat models
[2] = tested on: pain; conditions: 1 g of salicin

time to reach the brain without any metabolic change [1] [min]	Compound	amount of aspirin with comparable pain relief effect [2] [mg]
≤ 30	CCNC(=O)CC[C@H](N)C(=O)O [L-Theanine]	
	OCc1ccccc1O[C@@H]1O[C@H](CO)[C@@H](O)[C@H](O)[C@H]1O [salicin]	~620
